# Test results: patent US20250108038A1 (priority 2023, published 2025)
# Where “and” joins values, the source holds several entries; their conditions need not be identical. Identical values can stand only once.
# System: Long Evans rats
# Experiment: Behavioral satiety sequence (BSS)
# Assay type: in vivo, Long Evans rat
# Excerpt: The Behavioural Satiety Sequence (BSS) is a technique used to evaluate physiological satiety. It is based on the expression of a sequence of behaviors including eating, grooming, locomotor activity, followed by resting, which are typically observed in rodents post-ingestion (Halford et al, 1998, Pharmacology Biochemistry and Behaviour. 61(2): 159-168). The BSS is a widely used model for determining the effects of novel pharmaceuticals on food intake and measures of satiety in rodents (Oliveira et al, 2011, Revista de Nutrição. 24(4) 619-628), and to discriminate the cause of reduced food intake following pharmacological manipulation. For example, treatments that may reduce food intake by non-specific mechanisms, such as immobility, malaise, and taste adulteration, will disrupt this sequence (Halford et al, 1998, Pharmacology Biochemistry and Behaviour. 61(2): 159-168).
# Specifically, 12 male Long-Evans rats were food-deprived for 22 h with a 2 h feeding period each day. Rats were trained to consume daily food during the 2 h period over 25 days. The testing phase was initiated once the rats consistently consumed 16-18 g of food per day with ≤10% variance in amount of feed consumed. Feeding took place in designated individual boxes in a quiet room separate from the housing room. Continuous remote monitoring via video camera during feeding was used to assess the BSS. Food consumption was measured by weighing the total available food before and after the 2 h feeding window, correcting for spillage. Lorcaserin (1 mg/kg) was included as a reference control (Higgins et al, 2011, Neuropsychopharmacology. 37(5): 1177-1191). Subjects were tested using a repeated-measures, Latin square design with 2-3 days wash-out between treatment cycles.
# On scheduled test days, animals were monitored remotely via video camera during the feeding access period. The occurrence of four mutually exclusive behaviors (eating/drinking, grooming, active, rest) were individually scored. Over the 2 h feeding period, behaviors were assessed every 30 seconds. Scores were compiled into 23 5 min timebins (timebin 24 was removed due to early removal of animals) and the frequency of each behavior within each timebin was calculated to determine a temporal frequency of each measure (Rodgers et al, 2010, Pharmacology Biochemistry and Behaviour. 97: 3-14). Percentage time was plotted for each behavioral sequence in each timebin to compare between treatment groups (Higgins et al, 2011, Neuropsychopharmacology. 37(5): 1177-1191).
# [1] = Compound I-19 1 mg/kg, AVG of 12 animals
# [2] = Compound I-19 1 mg/kg, raw score of individual animals LT-1 to LT-12
# [3] = Compound I-19 3 mg/kg i.p., AVG of the group
# [4] = Compound I-19 3 mg/kg i.p., raw score per animal
structure (smiles),measurement,setting,value
Clc1ccc(C2(OCC3OCCO3)c3ccccc3C3=NCCN32)cc1 (stereo not drawn) [Compound I-19],"BSS scoring R (resting), Time Bin 13 (60-65 TOTAL), AVG",[1],0.13
same,"BSS scoring R (resting), Time Bin 14 (65-70 TOTAL), AVG",[1],0.10
same,"BSS scoring R (resting), Time Bin 15 (70-75 TOTAL), AVG",[1],0.13
same,"BSS scoring R (resting), Time Bin 16 (75-80 TOTAL), AVG",[1],0.18
same,"BSS scoring R (resting), Time Bin 17 (80-85 TOTAL), AVG",[1],0.14
same,"BSS scoring R (resting), Time Bin 18 (85-90 TOTAL), AVG",[1],0.30
same,"BSS scoring A (active), Time Bin 13 (60-65 TOTAL)",[2],2 and 1 (3×) and 0 (6×) and 3 (2×)
same,"BSS scoring A (active), Time Bin 14 (65-70 TOTAL)",[2],0 (4×) and 1 (4×) and 2 and 3 (2×) and 4
same,"BSS scoring A (active), Time Bin 15 (70-75 TOTAL)",[2],0 (4×) and 2 (4×) and 1 (2×) and 5 (2×)
same,"BSS scoring A (active), Time Bin 16 (75-80 TOTAL)",[2],1 (3×) and 2 and 0 (5×) and 4 (2×) and 6
same,"BSS scoring A (active), Time Bin 17 (80-85 TOTAL)",[2],9 and 0 (5×) and 4 and 2 and 3 and 1 (3×)
same,"BSS scoring A (active), Time Bin 18 (85-90 TOTAL)",[2],1 (3×) and 0 (5×) and 4 and 3 and 2 (2×)
same,"BSS scoring E (eating/drinking), Time Bin 13 (60-65 TOTAL)",[2],8 (2×) and 6 (3×) and 10 (3×) and 0 and 9 (2×) and 5
same,"BSS scoring E (eating/drinking), Time Bin 14 (65-70 TOTAL)",[2],10 (3×) and 8 (2×) and 9 and 1 and 7 (3×) and 5 and 6
same,"BSS scoring E (eating/drinking), Time Bin 15 (70-75 TOTAL)",[2],10 (2×) and 8 (3×) and 7 (2×) and 6 and 3 (2×) and 4 (2×)
same,"BSS scoring E (eating/drinking), Time Bin 16 (75-80 TOTAL)",[2],7 (3×) and 9 (2×) and 10 (2×) and 0 and 1 and 8 and 6 and 3
same,"BSS scoring E (eating/drinking), Time Bin 17 (80-85 TOTAL)",[2],1 (2×) and 10 (3×) and 6 and 8 (2×) and 0 and 9 (3×)
same,"BSS scoring E (eating/drinking), Time Bin 18 (85-90 TOTAL)",[2],9 (2×) and 6 and 7 (3×) and 1 (2×) and 0 (2×) and 8 and 10
same,"BSS scoring G (grooming), Time Bin 13 (60-65 TOTAL)",[2],0 (7×) and 2 (2×) and 1 (3×)
same,"BSS scoring G (grooming), Time Bin 14 (65-70 TOTAL)",[2],0 (8×) and 1 (4×)
same,"BSS scoring G (grooming), Time Bin 15 (70-75 TOTAL)",[2],0 (9×) and 1 and 3 and 2
same,"BSS scoring G (grooming), Time Bin 16 (75-80 TOTAL)",[2],2 and 1 and 0 (10×)
same,"BSS scoring G (grooming), Time Bin 17 (80-85 TOTAL)",[2],0 (11×) and 1
same,"BSS scoring G (grooming), Time Bin 18 (85-90 TOTAL)",[2],0 (8×) and 1 (4×)
same,"BSS scoring R (resting), Time Bin 13 (60-65 TOTAL)",[2],0 (7×) and 1 (3×) and 10 and 2
same,"BSS scoring R (resting), Time Bin 14 (65-70 TOTAL)",[2],0 (8×) and 8 and 2 and 1 (2×)
same,"BSS scoring R (resting), Time Bin 15 (70-75 TOTAL)",[2],0 (5×) and 2 (2×) and 1 (3×) and 4 and 5
same,"BSS scoring R (resting), Time Bin 16 (75-80 TOTAL)",[2],0 (6×) and 2 (2×) and 10 and 5 and 1 (2×)
same,"BSS scoring R (resting), Time Bin 17 (80-85 TOTAL)",[2],0 (9×) and 2 and 5 and 10
same,"BSS scoring R (resting), Time Bin 18 (85-90 TOTAL)",[2],0 (5×) and 1 (2×) and 2 and 7 (2×) and 8 and 10
same,"BSS scoring A (active), Time Bin 1 (0-5 TOTAL), AVG",[3],0.11
same,"BSS scoring A (active), Time Bin 2 (5-10 TOTAL), AVG",[3],0.02
same,"BSS scoring A (active), Time Bin 3 (10-15 TOTAL), AVG",[3],0.11
same,"BSS scoring A (active), Time Bin 4 (15-20 TOTAL), AVG",[3],0.13
same,"BSS scoring A (active), Time Bin 5 (20-25 TOTAL), AVG",[3],0.06
same,"BSS scoring A (active), Time Bin 6 (25-30 TOTAL), AVG",[3],0.11
same,"BSS scoring E (eating/drinking), Time Bin 1 (0-5 TOTAL), AVG",[3],0.86
same,"BSS scoring E (eating/drinking), Time Bin 2 (5-10 TOTAL), AVG",[3],0.93
same,"BSS scoring E (eating/drinking), Time Bin 3 (10-15 TOTAL), AVG",[3],0.87
same,"BSS scoring E (eating/drinking), Time Bin 4 (15-20 TOTAL), AVG",[3],0.83
same,"BSS scoring E (eating/drinking), Time Bin 5 (20-25 TOTAL), AVG",[3],0.88
same,"BSS scoring E (eating/drinking), Time Bin 6 (25-30 TOTAL), AVG",[3],0.84
same,"BSS scoring G (grooming), Time Bin 1 (0-5 TOTAL), AVG",[3],0.03
same,"BSS scoring G (grooming), Time Bin 2 (5-10 TOTAL), AVG",[3],0.03
same,"BSS scoring G (grooming), Time Bin 3 (10-15 TOTAL), AVG",[3],0.01
same,"BSS scoring G (grooming), Time Bin 4 (15-20 TOTAL), AVG",[3],0.02
same,"BSS scoring G (grooming), Time Bin 5 (20-25 TOTAL), AVG",[3],0.05
same,"BSS scoring G (grooming), Time Bin 6 (25-30 TOTAL), AVG",[3],0.01
same,"BSS scoring R (resting), Time Bin 1 (0-5 TOTAL), AVG",[3],0.00
same,"BSS scoring R (resting), Time Bin 2 (5-10 TOTAL), AVG",[3],0.02
same,"BSS scoring R (resting), Time Bin 3 (10-15 TOTAL), AVG",[3],0.02
same,"BSS scoring R (resting), Time Bin 4 (15-20 TOTAL), AVG",[3],0.02
same,"BSS scoring R (resting), Time Bin 5 (20-25 TOTAL), AVG",[3],0.02
same,"BSS scoring R (resting), Time Bin 6 (25-30 TOTAL), AVG",[3],0.04
same,"BSS scoring A (active), Time Bin 1 (0-5 TOTAL)",[4],2 and 1 (8×) and 3 and 0 (2×)
same,"BSS scoring A (active), Time Bin 2 (5-10 TOTAL)",[4],1 (2×) and 0 (10×)
same,"BSS scoring A (active), Time Bin 3 (10-15 TOTAL)",[4],2 (4×) and 1 (2×) and 0 (5×) and 3
same,"BSS scoring A (active), Time Bin 4 (15-20 TOTAL)",[4],0 (6×) and 3 (2×) and 2 and 6 and 1 (2×)
same,"BSS scoring A (active), Time Bin 5 (20-25 TOTAL)",[4],1 (7×) and 0 (5×)
same,"BSS scoring A (active), Time Bin 6 (25-30 TOTAL)",[4],2 (2×) and 1 (5×) and 0 (4×) and 4
same,"BSS scoring E (eating/drinking), Time Bin 1 (0-5 TOTAL)",[4],8 (4×) and 9 (6×) and 7 and 10
same,"BSS scoring E (eating/drinking), Time Bin 2 (5-10 TOTAL)",[4],8 (3×) and 10 (7×) and 9 (2×)
same,"BSS scoring E (eating/drinking), Time Bin 3 (10-15 TOTAL)",[4],8 (4×) and 9 (2×) and 10 (4×) and 7 (2×)
same,"BSS scoring E (eating/drinking), Time Bin 4 (15-20 TOTAL)",[4],9 (2×) and 7 (2×) and 10 (4×) and 8 (3×) and 4
same,"BSS scoring E (eating/drinking), Time Bin 5 (20-25 TOTAL)",[4],9 (4×) and 10 (3×) and 8 (4×) and 7
same,"BSS scoring E (eating/drinking), Time Bin 6 (25-30 TOTAL)",[4],8 (2×) and 9 (3×) and 10 (4×) and 5 and 7 and 6
same,"BSS scoring G (grooming), Time Bin 1 (0-5 TOTAL)",[4],0 (9×) and 1 (2×) and 2
same,"BSS scoring G (grooming), Time Bin 2 (5-10 TOTAL)",[4],1 (2×) and 0 (9×) and 2
same,"BSS scoring G (grooming), Time Bin 3 (10-15 TOTAL)",[4],0 (11×) and 1
same,"BSS scoring G (grooming), Time Bin 4 (15-20 TOTAL)",[4],0 (10×) and 1 (2×)
same,"BSS scoring G (grooming), Time Bin 5 (20-25 TOTAL)",[4],0 (6×) and 1 (6×)
same,"BSS scoring G (grooming), Time Bin 6 (25-30 TOTAL)",[4],0 (11×) and 1
same,"BSS scoring R (resting), Time Bin 1 (0-5 TOTAL)",[4],0
same,"BSS scoring R (resting), Time Bin 2 (5-10 TOTAL)",[4],0 (10×) and 1 (2×)
same,"BSS scoring R (resting), Time Bin 3 (10-15 TOTAL)",[4],0 (11×) and 2
